{"source": "patent US6582718B2", "about": "“Cyclosporin compositions” (Novartis AG, priority 1992, dated 2003)", "test": "Irritation of the eyes by surfactants used in eye-drops", "text": "In an attempt to solve these problems, studies have been conducted with various surfactants which are currently used for formulating medical substances with low solubility in water, especially the most commonly used surfactants polysorbate 80 and polyoxyethylene hydrogenated castor oil.", "data": [{"substance": "Polyoxyethylene hydrogenated castor oil", "values": [{"measurement": "irritation of the eyes", "value": "strongly irritate the eyes"}]}]}
